Like-named read-outs stand apart in the source and are kept apart here.
How the values were obtained:
Format in all cases: cell-based
[1] = tested on: TNF-α release stimulated by diprovocim-1 (3); test: antagonist test: inhibition of the activity of diprovocim-1 (3) on co-administration; settings: co-administered at 5 μM
[2] = tested on: differentiated human THP-1 cells; test: stimulated release of TNF-α from differentiated human THP-1 cells (ELISA, dose-response)
Summary of the method: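 Human THP-1 cells were PMA-differentiated toward macrophages, and stimulated TNF-α release was measured by ELISA. EC50 values were taken from dose-response curves.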

mouse macrophages = test: stimulated release of TNF-α from mouse macrophages; settings: Macrophage
Summary of the method: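 EC50 derived from dose-response curves for stimulated TNF-α release from mouse macrophages.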

EC50 ([2]; Homo sapiens, THP-1, running text, read-out: EC50, stimulated release of TNF-α from differentiated human THP-1 cells) [nM]	EC50 (mouse macrophages; Mus musculus, read-out: EC50, stimulated release of TNF-α from mouse macrophages) [nM]	SMILES	antagonist activity, inhibiting the activity of diprovocim-1 (3) [1]	activity in stimulating TNF-α release from human THP-1 cells (in words) ([2]; tested up to 5 μM where stated)	EC50 ([2]; table of functionalized derivatives 147-151, human THP-1 cells, read-out: EC50 (nM) (THP-1))	EC50 (mouse macrophages; table of functionalized derivatives 147-151, mouse macrophages, read-out: EC50 (nM) (mouse))
> 5000	> 5000	O=C(NCCc1ccccc1)[C@@H]1CN(C(=O)c2ccc(C(=O)N3C[C@@H](C(=O)NCCc4ccccc4)[C@H](C(=O)NCCc4ccccc4)C3)cc2)C[C@H]1C(=O)NCCc1ccccc1 [Compound 8, trans,trans-1,1′-Terephthaloylbis-(N^3, N^4-diphenethylpyrrolidine-3,4-dicarboxamide)]	incapable of acting as an antagonist	inactive	–	–
–	–	O=C(COc1cc(C(=O)N2C[C@@H](C(=O)N[C@H]3C[C@@H]3c3ccccc3)[C@H](C(=O)N[C@H]3C[C@@H]3c3ccccc3)C2)ccc1C(=O)N1C[C@@H](C(=O)N[C@H]2C[C@@H]2c2ccccc2)[C@H](C(=O)N[C@H]2C[C@@H]2c2ccccc2)C1)NCC(=O)N[C@@H](CO)C(=O)O [Compound 151, (2-(2,5-Bis((3S,4S)-3,4-bis(((1S,2R)-2-phenylcyclopropyl)carbamoyl)pyrrolidine-1-carbonyl)phenoxy)acetyl)glycyl-L-serine]	–	–	0.24	270
